Results taken from paper PMC6322304, “Phytohormone treatment induces generation of cryptic peptides with antimicrobial activity in the Moss Physcomitrella patens” (BMC Plant Biology, 2019).
Ends that are not written are not given here.

Tests used:
[1] = system: OPR3 gene; assay: qRT-PCR of pathogenesis-related gene in treated protonema; format: cell-based, Physcomitrella patens; conditions: protonema incubated 1 h; MeJA 50 μM to 1 mM, SA 10 μM to 1 mM (Figure S8)
Procedure: Protonemata of the moss P. patens subsp. patens (“Gransden 2004”, Freiburg) were grown in 200 mL liquid Knop medium with 500 mg/L ammonium tartrate under white light with a photon flux of 61 μmol/m^2•s under a 16-h photoperiod at 24°C. For mass spectrometry analysis, five-d-old protonema tissue was treated with 0.4 mM MeJA and incubated for 1 h. […] To analyze antimicrobial activity of secretome five-d-old- protonema tissue was treated with different concentration of MeJA. Treatment with cocktail of protease inhibitors was performed according to the dilution 1:200, as recommended by the manufacturer (P1860 Sigma Aldrich, USA). At least three independent biological replicates were used for each type of analysis. To test the gene expression induced by the peptides, five-d-old protonema tissue was treated with either mock solution or 1 μM peptide solution and harvested after 2, 4, 8 and 24 h later. […]
Total RNA from protonemata was isolated as previously described. Quality and quantity were evaluated using electrophoresis on agarose gel with ethidium bromide staining. Total RNA concentration of samples was precisely measured using the Quant-iT™ RNA Assay Kit, 5–100 ng on a Qubit 3.0 (Invitrogen, US) fluorometer. cDNA was synthesized using the MMLV RT kit (Evrogen, Russia) according to the manufacturer’s recommendations. […]

[2] = system: E. coli and B. subtilis bacteria; format: cell-based, Escherichia coli; Bacillus subtilis
Procedure: (§1) A serial dilution method in sterile 96 Well Collection Plates (Corning 3870) in liquid MHB medium was used to define the minimum inhibitory concentration (MIC) of the peptides against E. coli K-12 MG 1655 and B. subtilis 168 HT as previously described. Diluted peptide (50 μL) in MHB medium was added to each well at the appropriate concentration (128 to 0.25 μg/mL), along with 50 μL of bacterial suspension at a concentration of 10^6 CFU/mL of microbial cells. The experiment was carried out in three replicates. Liquid MHB medium without the addition of the peptide used as a negative control. The plates were incubated at 37°С for 20 h without mixing. The MIC of the peptides was assessed visually and by measuring the spectrophotometric absorbance at 570 nm to identify the concentration that inhibited the visible growth of bacteria.

[3] = system: E. coli K-12 MG 1655; format: cell-based, Escherichia coli; conditions: K-12, 20 h
Procedure: as §1

[4] = system: B. subtilis 168 HT; format: cell-based, Bacillus subtilis; conditions: 20 h
Procedure: as §1

| Compound | response of OPR3 transcription to hormone treatment (qRT-PCR) [1] | concentration at which bacterial growth was inhibited ([2]; on day 1 after inoculation, bacterium not named) | % inhibition, E. coli [3] | MIC, E. coli [3] | % inhibition, B. subtilis [4] | MIC, B. subtilis [4] | minimum inhibitory concentration (MIC) ([2]; bacterium not given, serial dilution with E. coli and B. subtilis) |
| --- | --- | --- | --- | --- | --- | --- | --- |
| CC/C=C\CC1C(=O)CCC1CC(=O)OC (centres unmarked) [MeJA, methyl jasmonate] | clear response | – | – | – | – | – | – |
| KIKVAINGFGRIG [synthetic copy of a cellular moss peptide, fragment of glyceraldehyde-3-phosphate dehydrogenase (GAPDH)] | – | 128 µg/mL | – | – | – | – | – |
| INIINAPLQGFKIA [INIINAPLQGFKIA] | – | – | >90% | 16 µg/mL | >90% | 32 µg/mL | – |
| LVQIGTKIVGVGRNYAAH [LVQIGTKIVGVGRNYAAH] | – | – | >90% | 64 µg/mL | >90% | 64 µg/mL | 64 µg/mL |
